Results taken from patent publication US8785445B2 (Array BioPharma Inc., priority 2008, dated 2014).

Molecular target: T1, human DP2 (Homo sapiens, UniProt Q9Y5Y4)
T1 construct: expressed in transfected cells; membranes prepared
T1 sequence (Q9Y5Y4 1-395): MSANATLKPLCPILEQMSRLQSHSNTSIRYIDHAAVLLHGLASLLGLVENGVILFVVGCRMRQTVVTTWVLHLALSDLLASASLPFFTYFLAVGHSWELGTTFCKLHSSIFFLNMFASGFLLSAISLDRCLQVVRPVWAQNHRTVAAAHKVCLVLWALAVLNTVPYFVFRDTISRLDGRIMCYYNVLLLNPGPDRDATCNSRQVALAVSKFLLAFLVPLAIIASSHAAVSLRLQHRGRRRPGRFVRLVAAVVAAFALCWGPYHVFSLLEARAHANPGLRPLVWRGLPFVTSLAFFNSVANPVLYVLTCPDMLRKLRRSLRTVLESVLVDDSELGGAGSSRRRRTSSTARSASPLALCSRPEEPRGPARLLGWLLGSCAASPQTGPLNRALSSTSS
Assay: DP-2 binding inhibition assay (3H-PGD2, membranes of DP2-expressing K562 cells)
Conditions: 4% HSA, read-out: EC50 (nM) 4% HSA
Experimental: The coding sequence of human DP2 was introduced into the human Leukemic cell line K562 by electroporation and stable clones expressing DP2 were obtained by limiting dilution followed by cell surface staining with a rat monoclonal antibody specific for human DP2. Membranes were prepared from one of these DP2 expressing clones and used to determine the ability of the compounds of the present invention to inhibit binding of prostaglandin D2 (PGD2) to its receptor DP2 in the presence of one or more of the following serum protein concentrations, 0.1% BSA, 1% HSA or 4% HSA, by the following procedure. […] After incubation for 60 minutes at room temperature, the assay was transferred to a filtration plate (#MAFB; Millipore Corporation, Bedford, Mass.), and washed three times with binding buffer. Radioactivity was measured by a scintillation counter (TopCount; PerkinElmer Life Sciences, Boston, Mass.). Nonspecific binding was determined by incubations in the presence of 1 μM unlabeled PGD2 or 5 μM of a known DP2 antagonist. IC50 values for inhibition of binding were determined for each compound tested from the inflexion point of a standard 4-parameter logistical curve fitted to the values obtained.

| Compound | EC50 [nM] |
| --- | --- |
| O=C(Nc1ccc(-c2ccc(C(F)(F)F)cc2Cl)nn1)c1ccc(Oc2cc3c(cc2Cl)C(C(=O)O)CCO3)cc1 (stereo not drawn) [Example 59, Sodium 6-chloro-7-(4-(6-(2-chloro-4-(trifluoromethyl)phenyl)pyridazin-3-ylcarbamoyl)phenoxy)chroman-4-carboxylate] | 283 |
| O=C(Nc1ccc(-c2ccc(C(F)(F)F)c(Cl)c2)nn1)c1ccc(Oc2cc3c(cc2Cl)C(C(=O)O)CCO3)cc1 (stereo not drawn) [Example 60, Sodium 6-chloro-7-(4-(6-(3-chloro-4-(trifluoromethyl)phenyl)pyridazin-3-ylcarbamoyl)phenoxy)chroman-4-carboxylate] | 63 |
| O=C(Nc1cnc(-c2ccc(C(F)(F)F)cc2)cn1)c1ccc(Oc2cc3c(cc2Cl)C(C(=O)O)CCO3)cc1 (stereo not drawn) [Example 61, Sodium 6-chloro-7-(4-(5-(4-(trifluoromethyl)phenyl)pyrazin-2-ylcarbamoyl)phenoxy)chroman-4-carboxylate] | 539 |
| Cc1ccc(-c2ccc(NC(=O)c3ccc(Oc4cc5c(cc4Cl)C(C(=O)O)CCO5)cc3)nn2)cc1 (stereo not drawn) [Example 62, Sodium 6-chloro-7-(4-(6-p-tolylpyridazin-3-ylcarbamoyl)phenoxy)chroman-4-carboxylate] | 327 |
| COc1ccc(-c2ccc(NC(=O)c3ccc(Oc4cc5c(cc4Cl)C(C(=O)O)CCO5)cc3)nn2)cc1 (stereo not drawn) [Example 63, Sodium 6-chloro-7-(4-(6-(4-methoxyphenyl)pyridazin-3-ylcarbamoyl)phenoxy)chroman-4-carboxylate] | 1460 |
| CSc1ccc(-c2ccc(NC(=O)c3ccc(Oc4cc5c(cc4Cl)C(C(=O)O)CCO5)cc3)nn2)cc1 (stereo not drawn) [Example 64, Sodium 6-chloro-7-(4-(6-(4-(methylthio)phenyl)pyridazin-3-ylcarbamoyl)phenoxy)chroman-4-carboxylate] | 344 |
| O=C(Nc1ccc(-c2ccc(Cl)c(Cl)c2)nn1)c1ccc(Oc2cc3c(cc2Cl)C(C(=O)O)CCO3)cc1 (stereo not drawn) [Example 65, Sodium 6-chloro-7-(4-(6-(3,4-dichlorophenyl)pyridazin-3-ylcarbamoyl)phenoxy)chroman-4-carboxylate] | 96.2 |
| O=C(Nc1ccc(-c2ccc(F)cc2)nn1)c1ccc(Oc2cc3c(cc2Cl)C(C(=O)O)CCO3)cc1 (stereo not drawn) [Example 66, Sodium 6-chloro-7-(4-(6-(4-fluorophenyl)pyridazin-3-ylcarbamoyl)phenoxy)chroman-4-carboxylate] | 306 |
| O=C(Nc1ccc(-c2ccc(Cl)c(F)c2)nn1)c1ccc(Oc2cc3c(cc2Cl)C(C(=O)O)CCO3)cc1 (stereo not drawn) [Example 67, Sodium 6-chloro-7-(4-(6-(4-chloro-3-fluorophenyl)pyridazin-3-ylcarbamoyl)phenoxy)chroman-4-carboxylate] | 203 |
| COc1ccc(-c2ccc(NC(=O)c3ccc(Oc4cc5c(cc4Cl)C(C(=O)O)CCO5)cc3)nn2)cn1 (stereo not drawn) [Example 68, Sodium 6-chloro-7-(4-(6-(6-methoxypyridin-3-yl)pyridazin-3-ylcarbamoyl)phenoxy)chroman-4-carboxylate] | 869 |
| COc1ccc(-c2ccc(NC(=O)c3ccc(Oc4cc5c(cc4Cl)C(C(=O)O)CCO5)cc3)nn2)c(OC)n1 (stereo not drawn) [Example 69, Sodium 6-chloro-7-(4-(6-(2,6-dimethoxypyridin-3-yl)pyridazin-3-ylcarbamoyl)phenoxy)chroman-4-carboxylate] | 1780 |
| O=C(Nc1ccc(-c2ccc(C(F)(F)F)cc2F)nn1)c1ccc(Oc2cc3c(cc2Cl)C(C(=O)O)CCO3)cc1 (stereo not drawn) [Example 70, Sodium 6-chloro-7-(4-(6-(2-fluoro-4-(trifluoromethyl)phenyl)pyridazin-3-ylcarbamoyl)phenoxy)chroman-4-carboxylate] | 437 |
| O=C(Nc1ccc(-c2ccc(F)cc2F)nn1)c1ccc(Oc2cc3c(cc2Cl)C(C(=O)O)CCO3)cc1 (stereo not drawn) [Example 71, Sodium 6-chloro-7-(4-(6-(2,4-difluorophenyl)pyridazin-3-ylcarbamoyl)phenoxy)chroman-4-carboxylate] | 1510 |
| O=C(Nc1ccc(-c2ccc(Cl)cc2F)nn1)c1ccc(Oc2cc3c(cc2Cl)C(C(=O)O)CCO3)cc1 (stereo not drawn) [Example 72, Sodium 6-chloro-7-(4-(6-(4-chloro-2-fluorophenyl)pyridazin-3-ylcarbamoyl)phenoxy)chroman-4-carboxylate] | 1110 |
| COc1ccc(-c2ccc(NC(=O)c3ccc(Oc4cc5c(cc4Cl)C(C(=O)O)CCO5)cc3)nc2)cn1 (stereo not drawn) [Example 73, Sodium 6-chloro-7-(4-(6′-methoxy-3,3′-bipyridin-6-ylcarbamoyl)phenoxy)chroman-4-carboxylate] | 959 |
| COc1ccc(-c2ccc(NC(=O)c3ccc(Oc4cc5c(cc4Cl)C(C(=O)O)CCO5)cc3)nc2)c(OC)n1 (stereo not drawn) [Example 74, Sodium 6-chloro-7-(4-(2′,6′-dimethoxy-3,3′-bipyridin-6-ylcarbamoyl)phenoxy)chroman-4-carboxylate] | 794 |
| O=C(Nc1ccc(-c2cccc(C(F)(F)F)c2)nc1)c1ccc(Oc2cc3c(cc2Cl)C(C(=O)O)CCO3)cc1 (stereo not drawn) [Example 75, 6-Chloro-7-(4-(6-(3-(trifluoromethyl)phenyl)pyridin-3-ylcarbamoyl)phenoxy)chroman-4-carboxylic acid] | 149 |
| O=C(Nc1ccc(-c2ccc(C(F)(F)F)cc2)nc1)c1ccc(Oc2cc3c(cc2Cl)C(C(=O)O)CCO3)cc1 (stereo not drawn) [Example 76, Sodium 6-chloro-7-(4-(6-(4-(trifluoromethyl)phenyl)pyridin-3-ylcarbamoyl)phenoxy)chroman-4-carboxylate] | 101 |
| CCOc1cccc(NC(=O)c2ccc(Oc3cc4c(cc3Cl)C(C(=O)O)CCO4)cc2)n1 (stereo not drawn) [Example 78, 6-Chloro-7-(4-(6-ethoxypyridin-2-ylcarbamoyl)phenoxy)chroman-4-carboxylic acid] | 740 |
| O=C(Nc1cncc(-c2ccc(Cl)cc2)n1)c1ccc(Oc2cc3c(cc2Cl)C(C(=O)O)CCO3)cc1 (stereo not drawn) [Example 79, 6-chloro-7-(4-(6-(4-chlorophenyl)pyrazin-2-ylcarbamoyl)phenoxy)chroman-4-carboxylic acid] | 105 |
| COc1nc(C(F)(F)F)ccc1CCNC(=O)c1ccc(Oc2cc3c(cc2Cl)C(C(=O)O)CCO3)cc1 (stereo not drawn) [Example 80, Sodium 6-chloro-7-(4-(2-(2-methoxy-6-(trifluoromethyl)pyridin-3-yl)ethylcarbamoyl)phenoxy)chroman-4-carboxylate] | 25.1 |
| O=C(Nc1cccc(-c2ccc(F)c(F)c2)n1)c1ccc(Oc2cc3c(cc2Cl)C(C(=O)O)CCO3)cc1 (stereo not drawn) [Example 81, 6-Chloro-7-(4-(6-(3,4-difluorophenyl)pyridin-2-ylcarbamoyl)phenoxy)chroman-4-carboxylic acid] | 97.9 |
| O=C(Nc1cccc(-c2ccc(F)cc2F)n1)c1ccc(Oc2cc3c(cc2Cl)C(C(=O)O)CCO3)cc1 (stereo not drawn) [Example 82, 6-Chloro-7-(4-(6-(2,4-difluorophenyl)pyridin-2-ylcarbamoyl)phenoxy)chroman-4-carboxylic acid] | 120 |
| CSc1ccc(-c2cccc(NC(=O)c3ccc(Oc4cc5c(cc4Cl)C(C(=O)O)CCO5)cc3)n2)cc1 (stereo not drawn) [Example 83, 6-Chloro-7-(4-(6-(4-(methylthio)phenyl)pyridin-2-ylcarbamoyl)phenoxy)chroman-4-carboxylic acid] | 71.3 |
| Cc1cc(-c2cccc(NC(=O)c3ccc(Oc4cc5c(cc4Cl)C(C(=O)O)CCO5)cc3)n2)ccc1F (stereo not drawn) [Example 84, 6-Chloro-7-(4-(6-(4-fluoro-3-methylphenyl)pyridin-2-ylcarbamoyl)phenoxy)chroman-4-carboxylic acid] | 144 |
| CC(C)(C)c1ccc(-c2cccc(NC(=O)c3ccc(Oc4cc5c(cc4Cl)C(C(=O)O)CCO5)cc3)n2)cc1 (stereo not drawn) [Example 85, 7-(4-(6-(4-tert-Butylphenyl)pyridin-2-ylcarbamoyl)phenoxy)-6-chlorochroman-4-carboxylic acid] | 22.5 |
| O=C(Nc1cccc(-c2ccc(Cl)c(F)c2)n1)c1ccc(Oc2cc3c(cc2Cl)C(C(=O)O)CCO3)cc1 (stereo not drawn) [Example 86, 6-Chloro-7-(4-(6-(4-chloro-3-fluorophenyl)pyridin-2-ylcarbamoyl)phenoxy)chroman-4-carboxylic acid] | 49.5 |
| O=C(Nc1cccc(-c2ccc(Cl)cc2F)n1)c1ccc(Oc2cc3c(cc2Cl)C(C(=O)O)CCO3)cc1 (stereo not drawn) [Example 87, 6-chloro-7-(4-(6-(4-chloro-2-fluorophenyl)pyridin-2-ylcarbamoyl)phenoxy)chroman-4-carboxylic acid] | 41.4 |
| Cc1ccc(-c2cccc(NC(=O)c3ccc(Oc4cc5c(cc4Cl)C(C(=O)O)CCO5)cc3)n2)cc1F (stereo not drawn) [Example 88, 6-Chloro-7-(4-(6-(3-fluoro-4-methylphenyl)pyridin-2-ylcarbamoyl)phenoxy)chroman-4-carboxylic acid] | 55.5 |
| O=C(Nc1cccc(-c2cc(F)cc(F)c2)n1)c1ccc(Oc2cc3c(cc2Cl)C(C(=O)O)CCO3)cc1 (stereo not drawn) [Example 89, 6-chloro-7-(4-(6-(3,5-difluorophenyl)pyridin-2-ylcarbamoyl)phenoxy)chroman-4-carboxylic acid] | 251 |
